Experimental data: the NIST ThermoML archive (doi:10.1016/j.tca.2017.12.019)
± gives the expanded uncertainty stated by the source.

Tests used:
[1] = Crystal; DTA
[2] = Molar enthalpy of transition or fusion; conditions: Crystal; DSC

For `CCCCCCCCCCCC(=O)O` [dodecanoic acid], the Normal melting temperature [1] was 42.70 ± 0.7 °C and the “Molar enthalpy of transition or fusion” value [2] was 8.43 ± 0.234 kcal/mol.
